According to PMC6366416, “Synthesis and in vitro anticancer activity of certain novel 1-(2-methyl-6-arylpyridin-3-yl)-3-phenylureas as apoptosis-inducing agents” (Journal of Enzyme Inhibition and Medicinal Chemistry, 2019):

What was measured:
Test in all cases: NCI one-dose SRB growth inhibition
Type in all cases: cell-based
[1] = tested on: A498; settings: Homo sapiens, Renal Cancer, 48 h, read-out: GI% A498
Outline: (§1)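 Growth inhibition read by SRB protein stain following 48 h treatment; NCI standard one-dose protocol.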

[2] = tested on: NCI-H460; settings: Homo sapiens, Non-Small Cell Lung Cancer, 48 h, read-out: GI% NCI-H460
Outline: as §1

[3] = tested on: SNB-75; settings: Homo sapiens, CNS Cancer, 48 h, read-out: GI% SNB-75
Outline: as §1

[4] = tested on: RXF 393; settings: Homo sapiens, Renal Cancer, 48 h, read-out: GI% RXF 393
Outline: as §1

[5] = tested on: K-562; settings: Homo sapiens, K562, 48 h, Leukemia, read-out: GI% K-562
Outline: as §1

[6] = tested on: UO-31; settings: Homo sapiens, Renal Cancer, 48 h, read-out: GI% UO-31
Outline: as §1

[7] = tested on: U251; settings: Homo sapiens, U-251, CNS Cancer, 48 h, read-out: GI% U251
Outline: as §1

[8] = tested on: SN12C; settings: Homo sapiens, Renal Cancer, 48 h, read-out: GI% SN12C
Outline: as §1

[9] = tested on: BT-549; settings: Homo sapiens, Breast Cancer, 48 h, read-out: GI% BT-549
Outline: as §1

[10] = tested on: HT29; settings: Homo sapiens, HT-29, 48 h, Colon Cancer, read-out: GI% HT29
Outline: as §1

[11] = tested on: SR; settings: Homo sapiens, 48 h, Leukemia, read-out: GI% SR
Outline: as §1

[12] = tested on: HS 578T; settings: Homo sapiens, Breast Cancer, 48 h, read-out: GI% HS 578T
Outline: as §1

[13] = tested on: HOP-62; settings: Homo sapiens, Non-Small Cell Lung Cancer, 48 h, read-out: GI% HOP-62
Outline: as §1

[14] = tested on: UACC-62; settings: Homo sapiens, UACC-62, 48 h, Melanoma, read-out: GI% UACC-62
Outline: as §1

[15] = tested on: MDA-MB-231; settings: Homo sapiens, Breast Cancer, 48 h, read-out: GI% MDA-MB-231
Outline: as §1

[16] = tested on: 786-0; settings: Homo sapiens, Renal Cancer, 48 h, read-out: GI% 786-0
Outline: as §1

[17] = tested on: NCI-H23; settings: Homo sapiens, Non-Small Cell Lung Cancer, 48 h, read-out: GI% NCI-H23
Outline: as §1

[18] = tested on: SK-MEL-5; settings: Homo sapiens, Melanoma, 48 h, read-out: GI% SK-MEL-5
Outline: as §1

[19] = tested on: NCI/ADR-RES; settings: Homo sapiens, Ovarian Cancer, 48 h, read-out: GI% NCI/ADR-RES
Outline: as §1

[20] = tested on: SF-539; settings: Homo sapiens, CNS Cancer, 48 h, read-out: GI% SF-539
Outline: as §1

[21] = tested on: IGROV1; settings: Homo sapiens, IGROV-1, Ovarian Cancer, 48 h, read-out: GI% IGROV1
Outline: as §1

[22] = tested on: HCC-2998; settings: Homo sapiens, Colon Cancer, 48 h, read-out: GI% HCC-2998
Outline: as §1

[23] = tested on: T-47D; settings: Homo sapiens, T47D, 48 h, Breast Cancer, read-out: GI% T-47D
Outline: as §1

[24] = tested on: PC-3; settings: Homo sapiens, PC-3, 48 h, Prostate, read-out: GI% PC-3
Outline: as §1

[25] = tested on: MOLT-4; settings: Homo sapiens, Leukemia, 48 h, read-out: GI% MOLT-4
Outline: as §1

[26] = tested on: MALME-3M; settings: Homo sapiens, Melanoma, 48 h, read-out: GI% MALME-3M
Outline: as §1

[27] = tested on: OVCAR-5; settings: Homo sapiens, Ovarian Cancer, 48 h, read-out: GI% OVCAR-5
Outline: as §1

[28] = tested on: HCT-116; settings: Homo sapiens, HCT-116, 48 h, Colon Cancer, read-out: GI% HCT-116
Outline: as §1

[29] = tested on: HOP-92; settings: Homo sapiens, Non-Small Cell Lung Cancer, 48 h, read-out: GI% HOP-92
Outline: as §1

[30] = tested on: OVCAR-3; settings: Homo sapiens, OVCAR-3, 48 h, Ovarian Cancer, read-out: GI% OVCAR-3
Outline: as §1

[31] = tested on: TK-10; settings: Homo sapiens, Renal Cancer, 48 h, read-out: GI% TK-10
Outline: as §1

[32] = tested on: SF-268; settings: Homo sapiens, CNS Cancer, 48 h, read-out: GI% SF-268
Outline: as §1

[33] = tested on: UACC-257; settings: Homo sapiens, UACC-257, read-out: GI% UACC-257, Melanoma, 48 h
Outline: as §1

| Compound | inhibition at 10 µM [1] [%] | inhibition at 10 µM [2] [%] | inhibition at 10 µM [3] [%] | inhibition at 10 µM [4] [%] | inhibition at 10 µM [5] [%] | inhibition at 10 µM [6] [%] | inhibition at 10 µM [7] [%] | inhibition at 10 µM [8] [%] | inhibition at 10 µM [9] [%] | inhibition at 10 µM [10] [%] | inhibition at 10 µM [11] [%] | inhibition at 10 µM [12] [%] | inhibition at 10 µM [13] [%] | inhibition at 10 µM [14] [%] | inhibition at 10 µM [15] [%] | inhibition at 10 µM [16] [%] | inhibition at 10 µM [17] [%] | inhibition at 10 µM [18] [%] | inhibition at 10 µM [19] [%] | inhibition at 10 µM [20] [%] | also measured |
| --- | --- | --- | --- | --- | --- | --- | --- | --- | --- | --- | --- | --- | --- | --- | --- | --- | --- | --- | --- | --- | --- |
| CCOC(=O)c1ccc(NC(=O)Nc2ccc(-c3cccs3)nc2C)cc1 [Compound 5j, Ethyl 4-(3-(2-methyl-6-(thiophen-2-yl)pyridin-3-yl)ureido)benzoate] | < 10 | 43 | < 10 | < 10 | 42 | < 10 | 21 | < 10 | 15 | 19 | 44 | < 10 | < 10 | < 10 | < 10 | 12 | < 10 | 22 | < 10 | < 10 | inhibition at 10 µM [21]: < 10%; inhibition at 10 µM [22]: < 10%; inhibition at 10 µM [23]: < 10%; inhibition at 10 µM [24]: 52%; inhibition at 10 µM [25]: 44%; inhibition at 10 µM [26]: < 10%; inhibition at 10 µM [27]: < 10%; inhibition at 10 µM [28]: 27%; inhibition at 10 µM [29]: < 10%; inhibition at 10 µM [30]: < 10%; inhibition at 10 µM [31]: < 10%; inhibition at 10 µM [32]: < 10%; inhibition at 10 µM [33]: < 10% |
| CCOC(=O)c1ccc(NC(=O)Nc2ccc(-c3ccc(F)cc3)nc2C)cc1 [Compound 5c, Ethyl 4-(3-(6-(4-fluorophenyl)-2-methylpyridin-3-yl)ureido)benzoate] | < 10 | < 10 | < 10 | < 10 | < 10 | < 10 | < 10 | < 10 | < 10 | 18 | 16 | < 10 | < 10 | 29 | < 10 | < 10 | < 10 | 38 | < 10 | < 10 | inhibition at 10 µM [21]: < 10%; inhibition at 10 µM [22]: < 10%; inhibition at 10 µM [23]: < 10%; inhibition at 10 µM [24]: < 10%; inhibition at 10 µM [25]: < 10%; inhibition at 10 µM [26]: < 10%; inhibition at 10 µM [27]: < 10%; inhibition at 10 µM [28]: < 10%; inhibition at 10 µM [29]: < 10%; inhibition at 10 µM [30]: < 10%; inhibition at 10 µM [31]: < 10%; inhibition at 10 µM [32]: < 10%; inhibition at 10 µM [33]: 29% |
